Results as given in patent publication US20090082342A1, “N-SUBSTITUTED PIPERIDINE DERIVATIVES AS SEROTONIN RECEPTOR AGENTS” (Acadia Pharmaceuticals, Inc., priority 2007, published 2009).
Counter-ions that a name gives are not always drawn.

What was measured:
Assay type in all cases: cell-based
[1] = target: T1, 5-HT2A receptor (Homo sapiens, UniProt P28223); assay: R-SAT functional receptor assay, inverse agonist activity at 5-HT2A
T1 construct: expressed in transfected cells; host or cells: NIH3T3 cells, pSI mammalian expression vector
Experimental: (§1) Receptor Selection and Amplification (R-SAT®) Assays. The functional receptor assay, Receptor Selection and Amplification Technology (R-SAT®), was used (with minor modifications from the procedure described previously (Brann, M. R. U.S. Pat. No. 5,707,798, 1998; Chem. Abstr. 1998, 128, 111548) to screen compounds for efficacy at the 5-HT2A receptor. Briefly, NIH3T3 cells were grown in 96 well tissue culture plates to 70-80% confluence. Cells were transfected for 12-16 h with plasmid DNAs using superfect (Qiagen Inc.) as per manufacturer's protocols. R-SAT's were generally performed with 50 ng/well of receptor and 20 ng/well of β-galactosidase plasmid DNA. All receptor and G-protein constructs used were in the pSI mammalian expression vector (Promega Inc) as described previously. The 5-HT2A or 5-HT2C receptor gene was amplified by nested PCR from brain cDNA using the oligodeoxynucleotides based on the published sequence (Saltzman et. al, Biochem. Biophys. Res. Comm. 1991, 181, 1469). For large-scale transfections, cells were transfected for 12-16 h, then trypsinized and frozen in DMSO. Frozen cells were later thawed, plated at 10,000-40,000 cells per well of a 96 well plate that contained drug. With both methods, cells were then grown in a humidified atmosphere with 5% ambient CO2 for five days. Media was then removed from the plates and marker gene activity was measured by the addition of the β-galactosidase substrate o-nitrophenyl β-D-galactopyranoside (ONPG, in PBS with 5% NP-40). The resulting colorimetric reaction was measured in a spectrophotometric plate reader (Titertek Inc.) at […]. All data were analyzed using the computer program XLFit (IDBSm). Efficacy is the percent maximal repression compared to repression by a control compound (ritanserin in the case of 5-HT2A). pIC50 is the negative of the log(IC50), where IC50 is the calculated concentration in Molar that produces 50% maximal repression. Various metabolites of N-(1-methylpiperidin-4-yl)-N-(4-fluorophenylmethyl)-N′-(4-(2-methylpropyloxy)phenylmethyl) carbamide, including the compounds of Formulae (I), (II), (III), (IV) and (V) as well as other metabolites, were assayed as described herein.

[2] = target: T2, 5-HT2C receptor (Homo sapiens, UniProt P28335); assay: R-SAT functional receptor assay, antagonist activity at 5-HT2C
T2 construct: expressed in transfected cells; host or cells: NIH3T3 cells, pSI mammalian expression vector
T2 sequence (P28335 33-458): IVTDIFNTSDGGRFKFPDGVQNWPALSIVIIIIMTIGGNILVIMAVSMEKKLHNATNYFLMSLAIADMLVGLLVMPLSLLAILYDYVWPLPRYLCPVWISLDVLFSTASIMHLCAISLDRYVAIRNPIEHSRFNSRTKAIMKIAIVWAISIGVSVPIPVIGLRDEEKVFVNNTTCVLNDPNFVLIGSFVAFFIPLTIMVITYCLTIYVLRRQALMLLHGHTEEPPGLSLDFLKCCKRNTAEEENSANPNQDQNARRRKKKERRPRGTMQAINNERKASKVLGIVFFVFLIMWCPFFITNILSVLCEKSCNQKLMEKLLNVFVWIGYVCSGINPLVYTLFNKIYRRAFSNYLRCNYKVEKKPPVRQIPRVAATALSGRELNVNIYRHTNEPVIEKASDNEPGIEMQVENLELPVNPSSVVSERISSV
Experimental: as §1

[3] = target: T1, 5-HT2A receptor; assay: R-SAT functional receptor assay, antagonist activity at 5-HT2A
Experimental: as §1

[4] = target: T2, 5-HT2C receptor; assay: R-SAT functional receptor assay, inverse agonist activity at 5-HT2C
Experimental: as §1, with “Various metabolites of N-(1-methylpiperidin-4-yl)-N-(4-fluorophenylmethyl)-N′-(4-(2-methylpropyloxy)phenylmethyl) carbamide, including the compounds of Formulae (I), (II), (III), (IV) and (V) as well as other metabolites, were assayed as described herein.” left out

T1 sequence (P28223 whole entry): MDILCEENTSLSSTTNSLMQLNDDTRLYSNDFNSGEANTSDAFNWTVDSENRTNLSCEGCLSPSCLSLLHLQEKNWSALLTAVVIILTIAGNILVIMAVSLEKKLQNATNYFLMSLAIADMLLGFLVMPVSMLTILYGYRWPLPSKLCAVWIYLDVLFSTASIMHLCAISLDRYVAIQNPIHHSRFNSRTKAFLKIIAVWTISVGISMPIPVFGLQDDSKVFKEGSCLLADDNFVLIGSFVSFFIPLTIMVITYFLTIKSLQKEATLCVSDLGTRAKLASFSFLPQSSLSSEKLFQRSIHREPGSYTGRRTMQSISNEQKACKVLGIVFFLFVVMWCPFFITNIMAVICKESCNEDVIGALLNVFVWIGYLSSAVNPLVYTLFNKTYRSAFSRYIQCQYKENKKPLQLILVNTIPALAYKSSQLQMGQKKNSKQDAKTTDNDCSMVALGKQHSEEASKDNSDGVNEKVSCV

SMILES | IC50 [1] | Ki [2] | Ki [3] | IC50 [4]
CC(C)COc1ccc(CNC(=O)N(Cc2ccc(F)cc2)C2CCNCC2)cc1 [Formula (II), N-(4-Fluorobenzyl)-N-(piperidin-4-yl)-N′-(4-isobutoxybenzyl)carbamide Hydrochloride] | 2.51 nM | 100 nM | 1.26 nM | –
CC(C)COc1ccc(CNC(=O)N(Cc2ccc(F)cc2)C2CC[N+](C)([O-])CC2)cc1 (centres unmarked) [Formula (V), N-(4-Fluorobenzyl)-N-(1-methyl-1-oxopiperidin-4-yl)-N′-(4-isobutoxybenzyl)carbamide] | 31.6 nM | 398 nM | 31.6 nM | 2000 nM
CN1CCC(N(Cc2ccc(F)cc2)C(=O)NCc2ccc(OCC(C)(C)O)cc2)CC1 [Formula (III), N-(4-Fluorobenzyl)-N-(1-methylpiperidin-4-yl)-N′-[4-(2-hydroxy)isobutoxybenzyl]carbamide Hydrochloride] | 2 nM | 158 nM | 1 nM | 794 nM
CN1CCC(N(Cc2ccc(F)cc2)C(=O)NCc2ccc(O)cc2)CC1 [Formula (I), N-(4-Fluorobenzyl)-N-(1-methylpiperidin-4-yl)-N′-(4-hydroxybenzyl)carbamide Hydrochloride] | 31.6 nM | 316 nM | 12.6 nM | –
C[C@H](CO)COc1ccc(CNC(=O)N(Cc2ccc(F)cc2)C2CCN(C)CC2)cc1 [Formula (IV), N-(4-Fluorobenzyl)-N-(1-methyl-piperidin-4-yl)-N′-(4-(R)-[(3-hydroxy)-isobutoxy]benzyl)carbamide] | 3.16 nM | 158 nM | – | 200 nM
